Results as given in article PMC2680961, “Homologous desensitization of signalling by the alpha (α) isoform of the human thromboxane A2 receptor: A specific role for nitric oxide signalling” (Biochimica et Biophysica Acta, 2007).

Legend:
eNOS = eNOS phosphorylation (anti-phospho eNOS^Ser1177 western blot); assay type: cell-based, human; conditions: HEK.TPα cells (also HEK 293, HEK.TPβ); 1 μM U46619 or 10 U/ml Thrombin, 5 min, 37 °C
Description: In order to assess eNOS phosphorylation, HEK.TPα, HEK.TPβ or HEK 293 cells (2 × 10^6 cells/10-cm dish) were plated some 48 h prior to experimentation. Cells were incubated with vehicle, 1 μM U46619 or 10 U/ml Thrombin for 5 min at 37 °C and aliquots of whole cell protein (100 μg/lane) were analysed by SDS-PAGE/western blot. Blots were initially screened using the anti-phospho eNOS^1177 as per supplier's instructions (Cell Signalling Technology) and, following stripping, were subsequently re-screened using the anti-eNOS (Transduction Laboratories).

TPα^S329,331A = target: T1, TPα^S329,331A (Homo sapiens, UniProt P21731, S329A/S331A); experiment: Intracellular calcium mobilization, HEK.TPα^S329,331A cells; assay type: cell-based; conditions: for Δ[Ca2+]i, U46619-induced: HEK.TPα^S329,331A
T1 construct: expressed in transfected cells
T1 sequence (P21731 1-343 S329A/S331A): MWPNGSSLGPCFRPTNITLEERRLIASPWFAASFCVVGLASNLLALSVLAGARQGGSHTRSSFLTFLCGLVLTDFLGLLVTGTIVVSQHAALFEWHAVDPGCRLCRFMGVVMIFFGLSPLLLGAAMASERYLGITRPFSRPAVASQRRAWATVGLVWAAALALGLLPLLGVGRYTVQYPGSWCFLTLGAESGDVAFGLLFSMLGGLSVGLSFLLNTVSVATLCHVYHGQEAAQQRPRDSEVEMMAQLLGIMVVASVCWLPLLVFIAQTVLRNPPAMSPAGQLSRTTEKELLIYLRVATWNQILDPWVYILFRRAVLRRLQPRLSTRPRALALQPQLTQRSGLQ
Description: Measurement of intracellular calcium mobilization ([Ca^2+]i) in FURA2/AM preloaded HEK 293 cell lines (2 × 10^6 cells/dish), each transiently co-transfected with pADVA (10 μg), and pCMV:Gαq (25 μg), was carried out as previously described. To investigate the effect of GRK2/βARK1 on TP-mediated [Ca^2+]i mobilization, HEK.TPα or HEK.TPβ cells (2 × 10^6 cells/dish) were co-transfected with pADVA (10 μg), pCMV:Gαq (25 μg) along with pRK5:βARK1^495–689 (25 μg), encoding a dominant negative form of GRK2/βARK1[39]. Approximately 48 h post-transfection, cells were harvested by scraping, washed twice in ice-cold PBS and resuspended in HBSSHB (modified Ca^2+/Mg^2+-free Hank's buffered salt solution, containing […], pH 7.67, 0.1% bovine serum albumin (BSA)) buffer at 10^7 cells/ml and incubated in the dark with 5 μM FURA2/AM for 45 min at 37 °C. […] For each measurement of [Ca^2+]i mobilization, aliquots of cells were diluted to 0.825 × 10^6 cells/ml in HBSSHB, 1 mM CaCl2 and FURA2 fluorescence was recorded (2 ml aliquots of cells) at 37^ °C with gentle stirring with a Perkin Elmer-Cetus LS50-B spectrofluorometer at excitation wavelengths of 340 nm and 380 nm and emission wavelength of 510 nm, respectively.
Cells were stimulated with the TP agonist U46619 (1 μM) and changes in [Ca^2+]i mobilization were monitored as a function of time. To assess agonist-mediated homologous desensitization, cells (0.825 × 10^6 cells/ml; 2 ml per assay) were stimulated with 1 μM U46619 (Primary stimulation) or, as a control, with the vehicle for 4 min; thereafter, cells were collected by centrifugation (900×g, 5 min); were washed twice in 2 ml HBSSHB, 1 mM CaCl2; and finally resuspended in 2 ml HBSSHB,1 mM CaCl2 and were left to recover over various time intervals (ranging from 0 to 60 min); thereafter, cells re-stimulated with 1 μM U46619 (Secondary stimulation) and changes in [Ca^2+]i mobilization were monitored as a function of time. […]

CCCCC[C@H](O)/C=C/[C@@H]1[C@@H](C/C=C\CCCC(=O)O)[C@H]2CO[C@@H]1C2 [U46619]
eNOS phosphorylation at Ser^1177 (eNOS): rapid phosphorylation-dependent activation of eNOS | Δ[Ca2+]i, U46619-induced (TPα^S329,331A; primary 1 μM U46619 4 min): 176 ± 9.4 nM | Δ[Ca2+]i, U46619-induced (TPα^S329,331A; secondary 1 μM U46619 at 15 min): 63 ± 4.4 nM | secondary U46619 [Ca2+]i response relative to primary response (TPα^S329,331A; printed as TPα^S239,331A, Fig. 6A and B): 36%
